Source: patent publication US20230374038A1, “MODULATORS OF CYSTIC FIBROSIS TRANSMEMBRANE CONDUCTANCE REGULATOR” (VERTEX PHARMACEUTICALS INCORPORATED, priority 2020, published 2023)
Read-outs that look alike come from different tables or passages of the source.

Experiments:
CFTR [1] = biological target: T1, CFTR (Homo sapiens, UniProt P13569, DEL508-508); test: HBE2 Assay: Ussing chamber assay of CFTR-mediated short-circuit currents in F508del/MF-HBE cells with 44 nM (6R,12R)-17-amino-12-methyl-6,15-bis(trifluoromethyl)-13,19-dioxa-3,4,18-triazatricyclo[12.3.1.12,5]nonadeca-1(18),2,4,14,16-pentaen-6-ol; assay type: cell-based; conditions: 3 μM with 44 nM (6R,12R)-17-amino-12-methyl-6,15-bis(trifluoromethyl)-13,19-dioxa-3,4,18-triazatricyclo[12.3.1.12,5]nonadeca-1(18),2,4,14,16-pentaen-6-ol, 18-24 hours, 20% human serum
T1 construct: endogenous in cells; host or cells: primary human bronchial epithelial cells, F508del/MF genotype
Method: Ussing chamber experiments were performed using human bronchial epithelial (HBE) cells derived from CF subjects heterozygous for F508del and a minimal function CFTR mutation (F508del/MF-HBE) and cultured as previously described (Neuberger T, Burton B, Clark H, Van Goor F Methods Mol Biol 2011:741:39-54). After four days the apical media was removed, and the cells were grown at an air liquid interface for >14 days prior to use.
To isolate the CFTR-mediated short-circuit (ISC) current, F508del/MF-HBE grown on Costar® Snapwell™ cell culture inserts were mounted in an Ussing chamber and the transepithelial ISC was measured under voltage-clamp recording conditions (Vhold=0 mV) at 37° C. The basolateral solution contained (in mM) 145 NaCl, 0.83 K2HPO4, 3.3 KH2PO4, 1.2 MgCl2, 1.2 CaCl2), 10 Glucose, 10 HEPES (pH adjusted to 7.4 with NaOH) and the apical solution contained (in mM) 145 NaGluconate, 1.2 MgCl2, 1.2 CaCl2), 10 glucose, 10 HEPES (pH adjusted to 7.4 with NaOH) and 30 μM amiloride to block the epithelial sodium channel. Forskolin (20 μM) was added to the apical surface to activate CFTR, followed by apical addition of a CFTR inhibitor cocktail consisting of BPO, GlyH-101, and CFTR inhibitor 172 (each at 20 μM final assay concentration) to specifically isolate CFTR currents. The CFTR-mediated ISC (μA/cm^2) for each condition was determined from the peak forskolin response to the steady-state current following inhibition.
The activity of the CFTR corrector compounds on the CFTR-mediated ISC was determined in Ussing chamber studies as described above. The F508del/MF-HBE cell cultures were either incubated with the corrector compounds at a range of concentrations in combination with 44 nM (6R,12R)-17-amino-12-methyl-6,15-bis(trifluoromethyl)-13,19-dioxa-3,4,18-triazatricyclo[12.3.1.12,5]nonadeca-1(18),2,4,14,16-pentaen-6-ol or were incubated with the corrector compounds at a single fixed concentration of 1 and 3 μM in combination with 44 nM (6R,12R)-17-amino-12-methyl-6,15-bis(trifluoromethyl)-13,19-dioxa-3,4,18-triazatricyclo[12.3.1.12,5]nonadeca-1(18),2,4,14,16-pentaen-6-ol for 18-24 hours at 37° C. and in the presence of 20% human serum. The concentration of corrector compounds with 44 nM (6R,12R)-17-amino-12-methyl-6,15-bis(trifluoromethyl)-13,19-dioxa-3,4,18-triazatricyclo[12.3.1.12,5]nonadeca-1(18),2,4,14,16-pentaen-6-ol during the 18-24 hours incubations was kept constant throughout the Ussing chamber measurement of the CFTR-mediated ISC to ensure compounds were present throughout the entire experiment.

CFTR [2] = biological target: CFTR (Homo sapiens, UniProt P13569); test: Membrane Potential Dye, Enteroid Assay B; assay type: cell-based
Method in brief: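 Human intestinal enteroids seeded at 5000 cells/well, treated with compound 18-24 h at 37 °C, then loaded 25 min with methyl oxonol membrane-potential dye plus CaCC blockers. Chloride transport started in chloride-free buffer with 10 μM forskolin, 100 μM IBMX and 300 nM Compound III, read 15 min; expressed as % of triple-combination control.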

T1 sequence (P13569 with tags, fused parts or gaps DEL508-508): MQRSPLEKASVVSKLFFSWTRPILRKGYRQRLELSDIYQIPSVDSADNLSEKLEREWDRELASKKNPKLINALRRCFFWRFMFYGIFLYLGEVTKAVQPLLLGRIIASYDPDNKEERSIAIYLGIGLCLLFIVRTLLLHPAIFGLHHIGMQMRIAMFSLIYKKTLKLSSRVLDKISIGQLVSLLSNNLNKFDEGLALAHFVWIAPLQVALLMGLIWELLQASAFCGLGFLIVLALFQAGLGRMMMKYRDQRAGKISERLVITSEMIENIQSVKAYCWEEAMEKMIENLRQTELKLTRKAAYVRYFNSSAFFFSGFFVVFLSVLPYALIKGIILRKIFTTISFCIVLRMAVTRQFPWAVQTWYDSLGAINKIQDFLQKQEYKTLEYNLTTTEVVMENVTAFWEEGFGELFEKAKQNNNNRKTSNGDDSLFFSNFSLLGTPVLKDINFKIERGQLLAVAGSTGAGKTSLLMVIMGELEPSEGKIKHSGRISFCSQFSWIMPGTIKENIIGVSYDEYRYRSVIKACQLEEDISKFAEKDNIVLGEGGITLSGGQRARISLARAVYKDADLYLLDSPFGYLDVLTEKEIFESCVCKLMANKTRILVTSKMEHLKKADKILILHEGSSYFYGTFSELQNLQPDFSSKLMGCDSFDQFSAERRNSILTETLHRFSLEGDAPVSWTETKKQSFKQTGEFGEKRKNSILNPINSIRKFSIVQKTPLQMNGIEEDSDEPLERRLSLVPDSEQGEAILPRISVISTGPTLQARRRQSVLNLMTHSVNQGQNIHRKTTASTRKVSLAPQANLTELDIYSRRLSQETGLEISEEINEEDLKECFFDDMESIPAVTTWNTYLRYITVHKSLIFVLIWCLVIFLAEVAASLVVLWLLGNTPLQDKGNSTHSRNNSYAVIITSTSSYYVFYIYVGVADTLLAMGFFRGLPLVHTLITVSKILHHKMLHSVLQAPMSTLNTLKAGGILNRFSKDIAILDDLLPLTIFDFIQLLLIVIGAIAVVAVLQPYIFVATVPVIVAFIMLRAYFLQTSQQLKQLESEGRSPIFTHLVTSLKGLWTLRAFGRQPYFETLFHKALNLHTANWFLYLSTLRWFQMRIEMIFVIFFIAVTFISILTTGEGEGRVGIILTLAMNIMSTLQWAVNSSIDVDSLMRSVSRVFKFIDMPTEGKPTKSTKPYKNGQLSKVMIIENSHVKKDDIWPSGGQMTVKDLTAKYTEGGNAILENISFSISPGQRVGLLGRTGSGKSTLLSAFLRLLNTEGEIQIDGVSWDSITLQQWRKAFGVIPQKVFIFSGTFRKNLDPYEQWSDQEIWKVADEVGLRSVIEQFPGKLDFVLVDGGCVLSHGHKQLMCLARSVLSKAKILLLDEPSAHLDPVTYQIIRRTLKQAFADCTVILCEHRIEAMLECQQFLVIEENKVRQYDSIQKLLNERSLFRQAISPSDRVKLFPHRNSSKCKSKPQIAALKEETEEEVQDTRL
CFTR (Homo sapiens, UniProt P13569), sequence (P13569 with tags, fused parts or gaps DEL508-508): as above

Question: Which “HBE2 Activity at 3 μM (%)” value (CFTR [1]) does the source give for `Cc1cccc(C)c1-c1nc2nc(c1F)OC[C@@H](CCC(C)(C)C)N(Cc1cncc(N3CCC[C@H]3C)n1)C(=O)c1cccc(c1)S(=O)(=O)N2` [Compound 366] here?
Answer: +++ (+++ is >60%)

Question: For `CC(C)(C)c1c(Cl)nc2nc1OC1CN(Cc3ccccc31)C(=O)c1cccc(c1)S(=O)(=O)N2` (centres unmarked), which ring closure, isolated yield (from CC(C)(C)c1c(Cl)nc(NS(=O)(=O)c2cccc(C(=O)N3Cc4ccccc4C(O)C3)c2)nc1Cl, snar bond, 13-membered ring, NaH, NMP, 8.0 mM, 70.0 °C, 2.0 h) is on record?
Answer: 39%

Question: For `Cc1cccc(CC2CCCCC2)c1-c1nc2nc(c1C)OC[C@@H](CC(C)(C)C)N(Cc1cncc(N(C)C3CCC3)n1)C(=O)c1cccc(c1)S(=O)(=O)N2` [Compound 360], which “HBE2 Activity at 3 μM (%)” value (CFTR [1]) is on record?
Answer: +++ (+++ is >60%)

Question: Which “HBE2 Activity at 3 μM (%)” value (CFTR [1]) does the source give for `Cc1cccc(C)c1-c1nc2nc(c1F)OC[C@@H](CCC(C)(C)C)N(Cc1ncc(OC(C)C)cn1)C(=O)c1cccc(c1)S(=O)(=O)N2` [Compound 369] here?
Answer: +++ (+++ is >60%)

Question: Which “HBE2 Activity at 3 μM (%)” value (CFTR [1]) does the source give for `Cc1cccc(C)c1-c1nc2nc(c1F)OC[C@@H](CCC(C)(C)C)N(Cc1cncc(N(C)C3CCC3)n1)C(=O)c1cccc(c1)S(=O)(=O)N2` [Compound 365] here?
Answer: +++ (+++ is >60%)

Question: For `CCc1c(Cl)nc2nc1Oc1cccc(c1)C(=O)Nc1cccc(c1)S(=O)(=O)N2`, which ring closure, isolated yield (from CCc1c(Cl)nc(NS(=O)(=O)c2cccc(N)c2)nc1Oc1cccc(C(=O)O)c1, amide bond, 14-membered ring, HATU/DIEA, DMF, 53.0 mM, 0.33 h, 2 steps) is on record?
Answer: 19%

Question: And the ring closure, isolated yield (from CCc1c(Cl)nc(NS(=O)(=O)c2cccc(N)c2)nc1Oc1cccc(C(=O)O)c1, amide bond, 14-membered ring, HATU/DIEA, DMF, 50.0 °C, 2.5 h, 4 steps)?
Answer: 8%

Question: For `Cc1cccc(C)c1-c1nc2nc(c1C)OC[C@@H](CC(C)C)N(C1CC3(CC(NC(=O)OC(C)(C)C)C3)C1)C(=O)c1cccc(c1)S(=O)(=O)N2` (some centres unmarked), which ring closure, isolated yield (from Cc1cccc(C)c1-c1nc(NS(=O)(=O)c2cccc(C(=O)O)c2)nc(OC[C@@H](CC(C)C)NC2CC3(CC(NC(=O)OC(C)(C)C)C3)C2)c1C, amide bond, 13-membered ring, HATU/DIEA, DMF, 14.1 mM, 3.0 h, 2 steps) is on record?
Answer: 45%

Question: With `Cc1cccc(C)c1-c1nc2nc(c1F)OC[C@@H](CCC(C)(C)C)N(Cc1cnc3cc(C(C)C)n(C)c3n1)C(=O)c1cccc(c1)S(=O)(=O)N2` [Compound 368] as the molecule, how does the “HBE2 Activity at 3 μM (%)” value (CFTR [1]) read?
Answer: +++ (+++ is >60%)

Question: Which “HBE2 Activity at 3 μM (%)” value (CFTR [1]) does the source give for `Cc1cccc(CCC(C)C)c1-c1nc2nc(c1C)OC[C@@H](CC(C)(C)C)N(Cc1ncc(OC(C)C)cn1)C(=O)c1cccc(c1)S(=O)(=O)N2` (atropisomer, axis not shown; (P)) [Compound 334, (5P,11R)-11-(2,2-Dimethylpropyl)-7-methyl-6-[2-methyl-6-(3-methylbutyl)phenyl]-12-{[5-(propan-2-yloxy)pyrimidin-2-yl]methyl}-9-oxa-2λ^6-thia-3,5,12,19-tetraazatricyclo[12.3.1.14,8]nonadeca-1(17),4(19),5,7,14(18),15-hexaene-2,2,13-trione] here?
Answer: +++ (+++ is >60%)

Question: Which “HBE2 Activity at 3 μM (%)” value (CFTR [1]) does the source give for `Cc1cccc(C)c1-c1nc2nc(c1C)OC[C@@H](CC(C)(C)C)N(Cc1cncc(N(C)C3CCC3)n1)C(=O)c1cccc(c1)S(=O)(=O)N2` [Compound 359] here?
Answer: +++ (+++ is >60%)

Question: With `CC(C)=Cc1c(N2C(=O)c3cccc(c3)S(=O)(=O)Nc3nc(c(C)c(-c4c(C)cccc4C)n3)OC[C@H]2CC(C)(C)C)cnn1C` [Compound 361, (11R)-6-(2,6-Dimethylphenyl)-11-(2,2-dimethylpropyl)-7-methyl-12-[1-methyl-5-(2-methylprop-1-enyl)pyrazol-4-yl]-2,2-dioxo-9-oxa-2λ^6-thia-3,5,12,19-tetrazatricyclo[12.3.1.14,8]nonadeca-1(18),4(19),5,7,14,16-hexaen-13-one] as the molecule, how does the “HBE2 Activity at 3 μM (%)” value (CFTR [1]) read?
Answer: +++ (+++ is >60%)

Question: For `Cc1cccc(CC(C)C)c1-c1nc2nc(c1C)OC[C@@H](CC(C)(C)C)N(Cc1cncc(N(C)C3CCC3)n1)C(=O)c1cccc(c1)S(=O)(=O)N2` (atropisomer, axis not shown) [Compound 357], which “HBE2 Activity at 3 μM (%)” value (CFTR [1]) is on record?
Answer: +++ (+++ is >60%)

Question: Which ring closure, isolated yield (from CCc1c(Cl)nc(NS(=O)(=O)c2cccc(N)c2)nc1Oc1ccc(Cl)c(C(=O)O)c1, amide bond, 14-membered ring, HATU/DIEA, DMF, 0.42 h, 3 steps) does the source give for `CCc1c(Cl)nc2nc1Oc1ccc(Cl)c(c1)C(=O)Nc1cccc(c1)S(=O)(=O)N2` here?
Answer: 7%

Question: Which ring closure, isolated yield (from Cc1cccc(C)c1-c1nc(NS(=O)(=O)c2cccc(C(=O)O)c2)nc(OC[C@@H](CC(C)C)NC2CC3(CC3)C2)c1Br, amide bond, 13-membered ring, HATU/DIEA, NMP, 105.0 mM, 24.0 h) does the source give for `Cc1cccc(C)c1-c1nc2nc(c1Br)OC[C@@H](CC(C)C)N(C1CC3(CC3)C1)C(=O)c1cccc(c1)S(=O)(=O)N2` here?
Answer: 53%

Question: With `Cc1cccc(C)c1-c1nc2nc(c1F)OC[C@@H](CCC(C)(C)C)N(Cc1cncc(N3CCCC[C@H]3C)n1)C(=O)c1cccc(c1)S(=O)(=O)N2` [Compound 367] as the molecule, how does the “HBE2 Activity at 3 μM (%)” value (CFTR [1]) read?
Answer: +++ (+++ is >60%)

Question: With `Cc1cccc(C)c1-c1nc2nc(c1C)OC[C@@H](CC(C)C)N(Cc1cncc(N(C)C3CCC3)n1)C(=O)c1cccc(c1)S(=O)(=O)N2` [Compound 358] as the molecule, how does the “HBE2 Activity at 3 μM (%)” value (CFTR [1]) read?
Answer: +++ (+++ is >60%)

Question: For `Cc1cccc(C)c1-c1nc2nc(c1C)OC[C@@H](CC(C)C)N(C1CC3(CCN(C(=O)OC(C)(C)C)CC3)C1)C(=O)c1cccc(c1)S(=O)(=O)N2`, which ring closure, isolated yield (from Cc1cccc(C)c1-c1nc(NS(=O)(=O)c2cccc(C(=O)O)c2)nc(OC[C@@H](CC(C)C)NC2CC3(CCN(C(=O)OC(C)(C)C)CC3)C2)c1C, amide bond, 13-membered ring, HATU/DIEA, DMF, 9.1 mM, 3.0 h, 2 steps) is on record?
Answer: 46%

Question: For `Cc1cccc(C)c1-c1nc2nc(c1Br)O[C@H](C)CNC(=O)c1cccc(c1)S(=O)(=O)N2`, which ring closure, isolated yield (from Cc1cccc(C)c1-c1nc(NS(=O)(=O)c2cccc(C(=O)O)c2)nc(O[C@H](C)CN)c1Br, amide bond, 13-membered ring, HATU/HOBt/DIEA, DMF, 31.1 mM, 0.42 h) is on record?
Answer: 54%

Question: For `C[C@@H]1CC=CCC[C@](OCc2ccccc2)(C(F)(F)F)C2=NN=C(O2)c2nc(c(C(F)(F)F)cc2N(C(=O)OC(C)(C)C)C(=O)OC(C)(C)C)O1` (mixture of isomers), which ring closure, isolated yield (from C=CCC[C@@](OCc1ccccc1)(c1nnc(-c2nc(O[C@H](C)CC=C)c(C(F)(F)F)cc2N(C(=O)OC(C)(C)C)C(=O)OC(C)(C)C)o1)C(F)(F)F, rcm bond, 14-membered ring, Grubbs 1st generation, DCE, 8.92 mM, 75.0 °C, 5.25 h) is on record?
Answer: 53%

Question: Which results are given for `Cc1cccc(C)c1-c1nc2nc(c1C)OC[C@@H](CCC(C)(C)O)N(C1CC3(CC3)C1)C(=O)c1cccc(c1)S(=O)(=O)N2` [Compound 106, (11R)-6-(2,6-dimethylphenyl)-11-(3-hydroxy-3-methyl-butyl)-7-methyl-2,2-dioxo-12-spiro[2.3]hexan-5-yl-9-oxa-2λ^6-thia-3,5,12,19-tetrazatricyclo[12.3.1.14,8]nonadeca-1(18),4(19),5,7,14,16-hexaen-13-one]?
Answer: ring closure, isolated yield (from Cc1cccc(C)c1-c1nc(NS(=O)(=O)c2cccc(C(=O)O)c2)nc(OC[C@@H](CCC(C)(C)O)NC2CC3(CC3)C2)c1C, amide bond, 13-membered ring, T3P/TEA, DMF/EtOAc, 51.6 mM, 17.0 h): 31%; Ent. B Max Activity (CFTR [2]): ++ (++ is 30-60%); EC50 (CFTR [2]; read-out: Ent. B EC50): 1000 to 3000 nM
